Measured values: ChEMBL document CHEMBL1134487, “Design, synthesis, and biological evaluation of analogues of the antitumor agent, 2-(4-[(7-chloro-2-quinoxalinyl)oxy]phenoxy)propionic acid (XK469)” (2001)
Active and inactive are the calls of the source. The rule behind the calls is not given here.

How the values were obtained:
[1] = test system: Mus musculus; assay: In vivo activity against transplanted Mel-B16 tumors of mice; format: functional, organism-based
[2] = test system: Mus musculus; assay: In vivo activity against transplanted Mam-17 tumors of mice; format: functional, organism-based
[3] = test system: Mus musculus; assay: In vivo activity against iv transplanted AML Leukemia 1498 tumors of mice; format: functional, organism-based
[4] = test system: Mus musculus; assay: In vivo activity against transplanted Squam lung-LC12 tumors of mice; format: functional, organism-based
[5] = test system: Mus musculus; assay: In vivo activity against transplanted colon-38 tumors of mice; format: functional, organism-based
[6] = test system: Mus musculus; assay: In vivo activity against transplanted Mam-16/C/Adr tumors of mice; format: functional, organism-based
[7] = test system: Mus musculus; assay: In vivo activity against transplanted colon-51 tumors of mice; format: functional, organism-based
[8] = test system: Mus musculus; assay: In vivo activity against transplanted Mam-17/Adr tumors of mice; format: functional, organism-based
[9] = test system: Mus musculus; assay: In vivo activity against transplanted Mam-16/C/ Taxol tumors of mice; format: functional, organism-based
[10] = test system: Mus musculus; assay: In vivo activity against transplanted Panc-03 tumors of mice; format: functional, organism-based
[11] = test system: Mus musculus; assay: In vivo activity against iv transplanted Leukemia L1210 tumors of mice; format: functional, organism-based
[12] = test system: Mus musculus; assay: In vivo activity against transplanted Mam-16/C tumors of mice; format: functional, organism-based
[13] = test system: Mus musculus; assay: In vivo activity against transplanted Panc-02 tumors of mice; format: functional, organism-based
[14] = test system: Mus musculus; assay: In vivo activity against transplanted colon-26 tumors of mice; format: functional, organism-based
[15] = test system: Mus musculus; assay: In vivo activity against transplanted Mam-17/Adr tumors of mice; Not active; format: functional, organism-based
[16] = test system: Mus musculus; assay: In vivo activity against iv transplanted AML Leukemia 1498 tumors of mice; Not active; format: functional, organism-based
[17] = test system: Mus musculus; assay: In vivo activity against transplanted Mam-16/C/Adr tumors of mice; Not active; format: functional, organism-based
[18] = test system: Mus musculus; assay: In vivo activity against transplanted Mam-17 tumors of mice; Not active; format: functional, organism-based
[19] = test system: Mus musculus; assay: In vivo activity against transplanted colon-26 tumors of mice; Not active; format: functional, organism-based
[20] = test system: Mus musculus; assay: In vivo activity against transplanted Mam-16/C/ Taxol tumors of mice; Not active; format: functional, organism-based
[21] = test system: Mus musculus; assay: In vivo activity against iv transplanted Leukemia L1210 tumors of mice; Not active; format: functional, organism-based
[22] = test system: Mus musculus; assay: In vivo antitumor activity against tumor […]; Inactive; format: functional, organism-based
[23] = organism: Mus musculus; assay: […] activity against C3H mice bearing panc-03 murine tumor; Inactive; format: functional, organism-based
[24] = test system: Mus musculus; assay: In vivo activity against C3H mice bearing panc-03 murine tumor; Inactive; format: functional, organism-based
[25] = test system: Mus musculus; assay: In vivo activity against transplanted Mam-16/C/Taxol tumors of mice; format: functional, organism-based
[26] = test system: Mus musculus; assay: In vivo activity tested against C3H mice bearing mammary adenocarcinoma -17/ADR tumor measured as body weight loss at 301 mg/kg (po); format: functional
[27] = test system: Mus musculus; assay: In vivo activity tested against C3H mice bearing mammary adenocarcinoma -17/ADR tumor measured as % treated/control calculated at 301 mg/kg (po); format: functional
[28] = test system: Mus musculus; assay: In vivo activity tested against C3H mice bearing mammary adenocarcinoma -17/ADR tumor measured as activity rating at 301 mg/kg (po); format: functional
[29] = test system: Mus musculus; assay: In vivo activity tested against C3H mice bearing mammary adenocarcinoma -17/ADR tumor measured as log Kill value was based on tumors that grew at 301 mg/kg (po); format: functional, organism-based; design: dose 301 mg/kg
[30] = test system: Mus musculus; assay: In vivo activity tested against C3H mice bearing panc-03 murine tumor at a dose of 330mg/kg, measured as activity rating; format: functional
[31] = test system: Mus musculus; assay: In vivo activity tested against C3H mice bearing panc-03 murine tumor at a dose of 330mg/kg, measured as % treated/control; format: functional

Compound | Log kill [1] | Log kill [2] | Log kill [4] | Log kill [5] | Log kill [6] | Log kill [7] | Log kill [8] | Log kill [10] | Log kill [11] | Log kill [12] | Log kill [13] | Log kill [14] | further results
CC(=O)O[C@H]1C(=O)[C@@]2(C)[C@H]([C@H](OC(=O)c3ccccc3)[C@]3(O)C[C@H](OC(=O)[C@H](O)[C@@H](NC(=O)c4ccccc4)c4ccccc4)C(C)=C1C3(C)C)[C@]1(OC(C)=O)CO[C@@H]1C[C@@H]2O | 0.7 | > 2.8 | < 0.7 | > 2.8 | < 0.7 | 1.2 | < 0.7 | > 2.8 | < 1 | > 2.8 | < 0.7 | 0.7 | Log kill [3]: < 0.7; Log kill [9]: < 0.7
CC[C@@]1(O)C(=O)OCc2c1cc1n(c2=O)Cc2cc3ccccc3nc2-1 | 1.2 | – | < 0.7 | 1.2 | – | 1.2 | – | > 2.8 | – | 2.8 | < 0.7 | – | NA [15]: inactive; NA [16]: inactive; NA [17]: inactive; NA [18]: inactive; NA [19]: inactive; NA [20]: inactive; NA [21]: inactive
O=P1(N(CCCl)CCCl)NCCCO1 (stereo not drawn) | 1.9 | 2.8 | > 2.8 | 0.7 | > 2.8 | 1.9 | 2.8 | 1.9 | 4.9 | 2.8 | < 0.7 | 1.9 | Log kill [3]: > 2.8; NA [20]: inactive
CC(Oc1ccc(Sc2cnc3ccc(Cl)cc3n2)cc1)C(=O)O (stereo not drawn) | – | – | – | – | – | – | – | – | – | – | – | – | NA [22]: inactive
Nc1ccn([C@@H]2O[C@H](CO)[C@@H](O)[C@@H]2O)c(=O)n1 | < 0.7 | 1.9 | < 0.7 | 1.9 | – | < 0.7 | 2.8 | < 0.7 | > 5 | 1.9 | < 0.7 | < 0.7 | NA [17]: inactive; Log kill [3]: > 2.8; NA [20]: inactive
CC(C#N)Oc1ccc(Oc2cnc3ccc(Cl)cc3n2)cc1 (stereo not drawn) | – | – | – | – | – | – | – | – | – | – | – | – | NA [23]: inactive
O=NN(CCCl)C(=O)NCCCl | > 2.8 | < 0.7 | 1.2 | < 0.7 | 0.7 | 1.9 | < 0.7 | < 0.7 | > 5 | < 0.7 | < 0.7 | > 2.8 | NA [16]: inactive; NA [20]: inactive
CC(Oc1ccc(Oc2cnc3ccc(Cl)cc3n2)cc1)C(=O)NO (stereo not drawn) | – | – | – | – | – | – | – | – | – | – | – | – | NA [24]: inactive
COc1cccc2c1C(=O)c1c(O)c3c(c(O)c1C2=O)C[C@@](O)(C(=O)CO)C[C@@H]3O[C@H]1C[C@H](N)[C@H](O)[C@H](C)O1 | 0.7 | > 2.8 | > 2.8 | 1.9 | 0.7 | 0.7 | < 0.7 | 2.8 | 1.9 | > 2.8 | < 0.7 | 0.7 | Log kill [3]: > 2.8; Log kill [25]: 2.8
C[C@@H](Oc1ccc(Oc2cnc3ccc(Cl)cc3n2)cc1)C(=O)O [R(+)XK469] | – | – | – | – | – | – | – | – | – | – | – | – | Body weight loss [26]: -8%; T/C [27]: 2%; Activity rating [28]: >2.8; Log kill [29]: 2.9
COc1cc([C@@H]2c3cc4c(cc3[C@@H](O[C@@H]3O[C@@H]5CO[C@@H](C)O[C@H]5[C@H](O)[C@H]3O)[C@H]3COC(=O)[C@H]23)OCO4)cc(OC)c1O | < 0.7 | 1.9 | > 2.8 | 1.9 | < 0.7 | 0.7 | < 0.7 | 1.9 | > 5 | 2.8 | < 0.7 | < 0.7 | NA [16]: inactive; Log kill [9]: 1.2
O=c1[nH]cc(F)c(=O)[nH]1 | 1.9 | 1.2 | < 0.7 | 2.8 | 2.8 | < 0.7 | < 0.7 | 1.2 | 4.9 | 2.8 | < 0.7 | 1.9 | Log kill [3]: 1.2; NA [20]: inactive
CC(Oc1ccc(-c2ccc(Oc3cnc4ccc(Cl)cc4n3)cc2)cc1)C(=O)O (stereo not drawn) | – | – | – | – | – | – | – | – | – | – | – | – | NA [22]: inactive
CISPLATIN | 1.9 | 2.8 | > 2.8 | 0.7 | 1.2 | 1.9 | > 2.8 | 1.9 | 2.9 | 1.2 | < 0.7 | 1.9 | NA [16]: inactive; NA [20]: inactive
CC[C@]1(O)C[C@@H]2CN(CCc3c([nH]c4ccccc34)[C@@](C(=O)OC)(c3cc4c(cc3OC)N(C)[C@H]3[C@@](O)(C(=O)OC)[C@H](OC(C)=O)[C@]5(CC)C=CCN6CC[C@]43[C@@H]65)C2)C1 | < 0.7 | < 0.7 | < 0.7 | 2.8 | < 0.7 | < 0.7 | < 0.7 | < 0.7 | 1.9 | 1.9 | < 0.7 | < 0.7 | Log kill [3]: < 0.7; Log kill [9]: < 0.7
C[C@H](Oc1ccc(Oc2cnc3ccc(Cl)cc3n2)cc1)C(=O)O | – | – | – | – | – | – | – | – | – | – | – | – | Body weight loss [26]: -3%; T/C [27]: 0%; Activity rating [28]: >2.8; Log kill [29]: 2.7
CC(Oc1ccc(Oc2cnc3ccc(N)cc3n2)cc1)C(=O)O (stereo not drawn) | – | – | – | – | – | – | – | – | – | – | – | – | NA [23]: inactive
CC(Oc1cnc2ccc(Cl)cc2n1)C(=O)O (stereo not drawn) | – | – | – | – | – | – | – | – | – | – | – | – | NA [22]: inactive
CC(Oc1ccc(Nc2cnc3ccc(Cl)cc3n2)cc1)C(=O)O (stereo not drawn) | – | – | – | – | – | – | – | – | – | – | – | – | NA [22]: inactive
CC(Oc1cccc(Oc2cnc3ccc(Cl)cc3n2)c1)C(=O)O (stereo not drawn) | – | – | – | – | – | – | – | – | – | – | – | – | Activity rating [30]: <0.7; T/C [31]: 100%
CC(Oc1ccccc1Oc1cnc2ccc(Cl)cc2n1)C(=O)O (stereo not drawn) | – | – | – | – | – | – | – | – | – | – | – | – | NA [22]: inactive
